US12679843B2, “Pyrrolopyrimidine amines as complement inhibitors” (BioCryst Pharmaceuticals, Inc., priority 2020, dated 2026)

target: Factor D (Homo sapiens, UniProt P00746); assay: Factor D esterolytic assay (Z-Lys-SBzl thioester substrate, DTNB, 405 nm); type: biochemical; settings: substrate Z-Lys-SBzl 1.29 mM, 100 mM HEPES, 500 mM NaCl, pH 7.5, 10% DMSO, tested a minimum of three times
In short: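 Run in pH 7.5 HEPES (100 mM) with 500 mM NaCl and 10% DMSO, with compound preincubated at room temperature or not before adding 1.29 mM Z-Lys-SBzl. Free thiol released by Factor D reacts with DTNB, and rate is followed at 405 nm minus 690 nm over 600 s. IC50 derives from rate-based inhibition, minimum three replicates.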

Factor D, sequence (P00746 26-253): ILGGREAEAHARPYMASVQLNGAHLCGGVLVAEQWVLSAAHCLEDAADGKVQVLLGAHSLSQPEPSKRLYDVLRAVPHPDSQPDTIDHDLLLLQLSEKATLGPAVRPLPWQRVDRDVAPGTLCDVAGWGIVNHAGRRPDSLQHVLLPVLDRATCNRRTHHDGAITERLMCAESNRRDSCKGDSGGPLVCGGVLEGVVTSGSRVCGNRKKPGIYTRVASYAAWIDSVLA

First: Cc1cc(C(F)(F)F)cc2c3c(N)ncnc3n(CC(=O)N3[C@@H]4C[C@@H]4C[C@H]3C(=O)Nc3nc(Br)ccc3F)c12 [Compound 317c, (1R,3S,5R)-2-(2-(4-amino-8-methyl-6-(trifluoromethyl)-9H-pyrimido[4,5-b]indol-9-yl)acetyl)-N-(6-bromo-3-fluoropyridin-2-yl)-2-azabicyclo[3.1.0]hexane-3-carboxamide]
Second: Cc1cc(C(F)(F)F)nc2c3c(N)ncnc3n(CC(=O)N3[C@@H]4C[C@@H]4C[C@H]3C(=O)Nc3cccc(Br)n3)c12 [Compound 362f, (1R,3S,5R)-2-(2-(4-amino-8-methyl-6-(trifluoromethyl)-9H-pyrido[2′,3′:4,5]pyrrolo[2,3-d]pyrimidin-9-yl)acetyl)-N-(6-bromopyridin-2-yl)-2-azabicyclo[3.1.0]hexane-3-carboxamide]
The IC50 of the first is higher: 100 to 1000 nM for the first, < 100 nM for the second.

`C[C@@]12C[C@@H](C(=O)Nc3cccc(Br)n3)N(C(=O)Cn3c4ccc(Cl)cc4c4c(N)ncnc43)[C@@H]1C2` [Compound 237a, (1R,3S,5R)-2-(2-(4-amino-6-chloro-9H-pyrimido[4,5-b]indol-9-yl)acetyl)-N-(6-bromopyridin-2-yl)-5-methyl-2-azabicyclo[3.1.0]hexane-3-carboxamide] and `CN(C)c1ccc2c(c1)c1c(N)ncnc1n2CC(=O)N1[C@H](C(=O)Nc2cccc(Br)n2)C[C@@]2(C)C[C@@H]12` [Compound 215g, (1R,3S,5R)-2-(2-(4-amino-6-(dimethylamino)-9H-pyrimido[4,5-b]indol-9-yl)acetyl)-N-(6-bromopyridin-2-yl)-5-methyl-2-azabicyclo[3.1.0]hexane-3-carboxamide] cannot be ordered by IC50: < 100 nM for the first, < 100 nM for the second.

`Cc1ncc(NC(=O)[C@@H]2C[C@@]3(C)C[C@H]3N2C(=O)Cn2c3ncnc(N)c3c3cc(C(F)(F)F)cc(C)c32)nc1Cl` [Compound 364e, (1R,3S,5R)-2-(2-(4-amino-8-methyl-6-(trifluoromethyl)-9H-pyrimido[4,5-b]indol-9-yl)acetyl)-N-(6-chloro-5-methylpyrazin-2-yl)-5-methyl-2-azabicyclo[3.1.0]hexane-3-carboxamide] and `Cc1nc(C(F)(F)F)cc2c3c(N)ncnc3n(CC(=O)N3[C@H](C(=O)Nc4cccc(Cl)n4)C[C@@]4(C)C[C@@H]34)c12` [Compound 351a, (1R,3S,5R)-2-(2-(4-amino-8-methyl-6-(trifluoromethyl)-9H-pyrido[4′,3′:4,5]pyrrolo[2,3-d]pyrimidin-9-yl)acetyl)-N-(6-chloropyridin-2-yl)-5-methyl-2-azabicyclo[3.1.0]hexane-3-carboxamide] cannot be ordered by IC50: < 100 nM for the first, < 100 nM for the second.

`Cc1ccc(Br)nc1NC(=O)[C@@H]1C[C@@H](F)CN1C(=O)Cn1c2ccccc2c2c(N)ncnc21` [Compound 3b, (2S,4R)-1-(2-(4-amino-9H-pyrimido[4,5-b]indol-9-yl)acetyl)-N-(6-bromo-3-methylpyridin-2-yl)-4-fluoropyrrolidine-2-carboxamide] and `Cc1ccc(Br)nc1NC(=O)[C@@H]1C[C@@]2(C)C[C@H]2N1C(=O)Cn1c2ccccc2c2c(N)ncnc21` [Compound 12a, (1R,3S,5R)-2-(2-(4-amino-9H-pyrimido[4,5-b]indol-9-yl)acetyl)-N-(6-bromo-3-methylpyridin-2-yl)-5-methyl-2-azabicyclo[3.1.0]hexane-3-carboxamide] cannot be ordered by IC50: < 100 nM for the first, < 100 nM for the second.

Compared with `Cc1ccc2c(c1)c1c(N)ncnc1n2C(C)C(=O)N1[C@@H]2C[C@@H]2C[C@H]1C(=O)Nc1cccc(Br)n1` (single isomer, unassigned) [Compound 22c], `Nc1ccc2c(c1)c1c(N)ncnc1n2CC(=O)N1[C@@H]2C[C@@H]2C[C@H]1C(=O)Nc1cccc(Br)n1` [Compound 61a, (1R,3S,5R)—N-(6-bromopyridin-2-yl)-2-(2-(4,6-diamino-9H-pyrimido[4,5-b]indol-9-yl)acetyl)-2-azabicyclo[3.1.0]hexane-3-carboxamide] is lower in IC50: > 1000 nM for the first, < 100 nM for the second. The second is the more potent here.

`COc1cc(Cl)cc2c3c(N)ncnc3n(CC(=O)N3[C@@H]4C[C@@H]4C[C@H]3C(=O)Nc3cccc(Br)n3)c12` [Compound 238g, (1R,3S,5R)-2-(2-(4-amino-6-chloro-8-methoxy-9H-pyrimido[4,5-b]indol-9-yl)acetyl)-N-(6-bromopyridin-2-yl)-2-azabicyclo[3.1.0]hexane-3-carboxamide] and `COc1cc2c(cc1C(F)(F)F)c1c(N)ncnc1n2CC(=O)N1[C@@H]2C[C@@H]2C[C@H]1C(=O)Nc1cccc(Br)n1` [Compound 367g, (1R,3S,5R)-2-(2-(4-amino-7-methoxy-6-(trifluoromethyl)-9H-pyrimido[4,5-b]indol-9-yl)acetyl)-N-(6-bromopyridin-2-yl)-2-azabicyclo[3.1.0]hexane-3-carboxamide] cannot be ordered by IC50: < 100 nM for the first, < 100 nM for the second.

`CCOC(=O)CCc1ccc2c(c1)c1c(N)ncnc1n2CC(=O)N1[C@@H]2C[C@@H]2C[C@H]1C(=O)Nc1cccc(Br)n1` [Compound 45d, ethyl 3-(4-amino-9-(2-((1R,3S,5R)-3-((6-bromopyridin-2-yl)carbamoyl)-2-azabicyclo[3.1.0]hexan-2-yl)-2-oxoethyl)-9H-pyrimido[4,5-b]indol-6-yl)propanoate] and `COc1ccc2c3c(N)ncnc3n(CC(=O)N3[C@@H]4C[C@@H]4C[C@H]3C(=O)Nc3cccc(Br)n3)c2c1` [Compound 36e, (1R,3S,5R)-2-(2-(4-amino-7-methoxy-9H-pyrimido[4,5-b]indol-9-yl)acetyl)-N-(6-bromopyridin-2-yl)-2-azabicyclo[3.1.0]hexane-3-carboxamide] cannot be ordered by IC50: < 100 nM for the first, < 100 nM for the second.

Compared with `Cc1ccc(Br)nc1NC(=O)[C@@H]1C[C@@]2(C)C[C@H]2N1C(=O)Cn1ccc2c(N)ncnc21` [Compound 74a, (1R,3S,5R)-2-(2-(4-amino-7H-pyrrolo[2,3-d]pyrimidin-7-yl)acetyl)-N-(6-bromo-3-methylpyridin-2-yl)-5-methyl-2-azabicyclo[3.1.0]hexane-3-carboxamide], `COc1cccc2c3c(N)ncnc3n(CC(=O)N3[C@H](C(=O)Nc4nc(Br)ccc4C)C[C@@]4(C)C[C@@H]34)c12` [Compound 254a, (1R,3S,5R)-2-(2-(4-amino-8-methoxy-9H-pyrimido[4,5-b]indol-9-yl)acetyl)-N-(6-bromo-3-methylpyridin-2-yl)-5-methyl-2-azabicyclo[3.1.0]hexane-3-carboxamide] is lower in IC50: 100 to 1000 nM for the first, < 100 nM for the second.

`Cc1cc(C2CC2)cc2c3c(N)ncnc3n(CC(=O)N3[C@H](C(=O)Nc4cccc(Br)n4)C[C@@]4(C)C[C@@H]34)c12` [Compound 361a, (1R,3S,5R)-2-(2-(4-amino-6-cyclopropyl-8-methyl-9H-pyrimido[4,5-b]indol-9-yl)acetyl)-N-(6-bromopyridin-2-yl)-5-methyl-2-azabicyclo[3.1.0]hexane-3-carboxamide] and `C[C@@]12C[C@@H](C(=O)Nc3cccc(Br)n3)N(C(=O)Cn3c4cc(F)c(F)cc4c4c(N)ncnc43)[C@@H]1C2` [Compound 387a, (1R,3S,5R)-2-(2-(4-amino-6,7-difluoro-9H-pyrimido[4,5-b]indol-9-yl)acetyl)-N-(6-bromopyridin-2-yl)-5-methyl-2-azabicyclo[3.1.0]hexane-3-carboxamide] cannot be ordered by IC50: < 100 nM for the first, < 100 nM for the second.

Going from `Nc1ncnc2c1c1nc(-c3ccccc3)ccc1n2CC(=O)N1[C@@H]2C[C@@H]2C[C@H]1C(=O)Nc1cccc(Br)n1` [Compound 298c, (1R,3S,5R)-2-(2-(4-amino-6-phenyl-9H-pyrido[2′,3′:4,5]pyrrolo[2,3-d]pyrimidin-9-yl)acetyl)-N-(6-bromopyridin-2-yl)-2-azabicyclo[3.1.0]hexane-3-carboxamide] to `C[C@@]12C[C@@H](C(=O)Nc3cccc(Br)n3)N(C(=O)Cn3c4cccc(C(=O)O)c4c4c(N)ncnc43)[C@@H]1C2` [Compound 222a, 4-amino-9-(2-((1R,3S,5R)-3-((6-bromopyridin-2-yl)carbamoyl)-5-methyl-2-azabicyclo[3.1.0]hexan-2-yl)-2-oxoethyl)-9H-pyrimido[4,5-b]indole-5-carboxylic acid], the IC50 rises from < 100 nM to > 1000 nM.

`C[C@@]12C[C@@H](C(=O)Nc3cccc(Br)n3)N(C(=O)Cn3c4ccc(C(F)(F)F)cc4c4c(N)ncnc43)[C@@H]1C2` [Compound 28a, (1R,3S,5R)-2-(2-(4-amino-6-(trifluoromethyl)-9H-pyrimido[4,5-b]indol-9-yl)acetyl)-N-(6-bromopyridin-2-yl)-5-methyl-2-azabicyclo[3.1.0]hexane-3-carboxamide] and `C[C@@]12C[C@@H](C(=O)Nc3cccc(Br)n3)N(C(=O)Cn3c4ccc(CCC(=O)O)cc4c4c(N)ncnc43)[C@@H]1C2` [Compound 214b, 3-(4-amino-9-(2-((1R,3S,5R)-3-((6-bromopyridin-2-yl)carbamoyl)-5-methyl-2-azabicyclo[3.1.0]hexan-2-yl)-2-oxoethyl)-9H-pyrimido[4,5-b]indol-6-yl)propanoic acid] cannot be ordered by IC50: < 100 nM for the first, < 100 nM for the second.

First: Nc1ncnc2c1ncn2CC(=O)N1[C@@H]2C[C@@H]2C[C@H]1C(=O)Nc1cncc(Br)n1 [Compound 112b, (1R,3S,5R)-2-(2-(6-amino-9H-purin-9-yl)acetyl)-N-(6-bromopyrazin-2-yl)-2-azabicyclo[3.1.0]hexane-3-carboxamide]
Second: Nc1nc(N)c2ncn(CC(=O)N3[C@@H]4C[C@@H]4C[C@H]3C(=O)Nc3cccc(Br)n3)c2n1 [Compound 92b, (1R,3S,5R)—N-(6-bromopyridin-2-yl)-2-(2-(2,6-diamino-9H-purin-9-yl)acetyl)-2-azabicyclo[3.1.0]hexane-3-carboxamide]
The IC50 of the first is lower: < 100 nM for the first, > 1000 nM for the second.

First: Nc1ncnc2c1c1ccccc1n2CC(=O)N1C[C@H](F)C[C@H]1C(=O)NCc1cccc(Cl)c1F [Compound 20a, (2S,4R)-1-(2-(4-amino-9H-pyrimido[4,5-b]indol-9-yl)acetyl)-N-(3-chloro-2-fluorobenzyl)-4-fluoropyrrolidine-2-carboxamide]
Second: Nc1ncnc2c1c(-c1ccccc1Cl)cn2CC(=O)N1C[C@H](F)C[C@H]1C(=O)NCc1cccc(Cl)c1F [Compound 136a, (2S,4R)-1-(2-(4-amino-5-(2-chlorophenyl)-7H-pyrrolo[2,3-d]pyrimidin-7-yl)acetyl)-N-(3-chloro-2-fluorobenzyl)-4-fluoropyrrolidine-2-carboxamide]
The IC50 of the first is lower: < 100 nM for the first, > 1000 nM for the second.
